In patent US20070265451A1, “Process for the preparation of oxazolidinones and method of use thereof” (Board of Trustees of Michigan State University, priority 2001, published 2007):
In brackets after ≈: the same amount, converted by molar mass.

Columns and labels:
[1] = tested on: Enterococcus faecalis 29212; assay: Broth microdilution MIC, Enterococcus faecalis ATCC 29212; format: cell-based; details: for MIC: Enterococcus faecalis, ATCC29212, Table 2, read-out: MIC(90-100) EF-ATCC 29212
[2] = tested on: Staphylococcus aureus 29213; assay: Broth microdilution MIC, Staphylococcus aureus ATCC 29213; format: cell-based; details: for MIC: Staphylococcus aureus, ATCC29213, Table 2, read-out: MIC(90-100) SA-ATCC 29213
Text: See, NCCLS document M7-A5. Methods for Dilution Antimicrobial Susceptibility Tests for Bacteria That Grow Aerobically; Approved Standard-Fifth Edition. Volume 20, Number 2. January 2000, (ISBN 1-56238-394-9) and Lorian V. Antibiotics. Laboratory Medicine. 4th ed. Baltimore: Williams and Wilkins, pp. 52-111 (1996). For subsequent testing, the following strains have been used: Staphylococcus aureus NRS4 (992; HIP5836; New Jersey) (Smith et al., New Engl. J. Med. 340: 493-501 (1999); Tenover et al., J. Clin. Microbiol. 36: 1020-1027 (1998)), Staphylococcus aureus NRS3 (963sm; HIP5827; Michigan) (Smith et al., ibid.; Tenover et al., ibid.), Staphylococcus aureus NRS103 (Becker) (Karakawa and Vann, Sem. Infect. Dis. 4: 285 (1982), Staphylococcus aureus NRS102 (Reynolds) Karakawa and Vann, ibid; McMurray et al., JID 162: 759-762 (1990)), Staphylococcus epidermidis NRS101 (ATCC 35984), Streptococcus pneumoniae (ATCC 49619), Enterococcus faecalis (ATCC 51299), and Staphylococcus aureus (ATCC 43300.
Stock cultures of these strains were obtained by seeding colonies from overnight streak plates (Tryptic Soy Agar II (TSAII) and 5% sheep's blood (SB) agar plates: Becton Dickinson, CA#2211261) into sterile Mueller-Hinton Broth (MHB)(Becton Dickinson, CA#211443) and growing the suspensions to mid-late log phase in 13 mL screw-cap tubes. Glycerol (Sigma, CA#G-6279) was sterilized by autoclaving for 15 minutes at 121° C. in 6 mL volumes, and then stored at 2-8° C. This was diluted to 20% in dH2O, and then added 1:1 (250 μL:250 μL, 10% final glycerol concentration) to the logarithmically growing bacterial suspension of each strain. Tubes were frozen and stored at −70° C. Purity of the stock cultures was tested by thawing one tube of each strain in a water bath at 37° C. and plating them on TSAII with 5% SB. Plates were incubated overnight at 37° C. and colonies were examined for morphology. Growth curves and approximate CFU/mL were also obtained.
High purity substituted oxazolidinones prepared according to the method of the present invention and a ZYVOX standard (ZYVOX is a trade name for linezolid available from Pharmacia Corporation) were provided by Synthon Corporation, Monmouth Junction, N.J. Compounds were dissolved at 10 mg/mL in DMSO, as after a dilution of approx. 39.0 to reach the desired final starting concentration of 256 ug/ml, the concentration of DMSO is approximately 2.5%. Compounds were then stored at room temperature (25° C.) in the dark.
Antimicrobial susceptibility screening was as follows. All compounds were initially screened for activity in duplicate at 256 μg/mL (2.5% DMSO), including ZYVOX, the positive control for antimicrobial activity. A single well of bacterially inoculated 2.5% DMSO served as a positive control for bacterial growth, while a well of DMSO inoculated with of 50 μL of sterile 0.9% saline served as a negative growth control. Controls were prepared on every microplate, so that 46 was the maximum number of compounds that were screened per plate. Broth was pipetted into sterile microcentrifuge tubes, to which the compounds were then added (1:19.53 dilution or 2× final concentration). Each tube was vortexed, and 50 μL was immediately transferred to the microplate wells for each strain. Solubility was assessed by visual observation. MB (medium broth solubility) was recorded if the solution appeared only slightly cloudy. LB (low broth solubility) was recorded if the solution was extremely cloudy, and especially if larger, clumpy precipitates formed. Bacteria were grown as described above, although absorbance was measured at 650 nm and bacteria were diluted to an initial OD of 0.12-0.15. Bacteria were then further diluted 1:100 with 0.9% sterile saline. Within 15 minutes of this final dilution, 50 μL of this suspension was added to each well for a final volume of […], and a final bacterial concentration of 1×10^5 CFU/mL (except for the negative control well). Plates were grown as above and all observations were recorded. […]

CCCCN1CC(COS(=O)(=O)c2ccc(Cl)c3nonc23)OC1=O (centres unmarked) [Compound 285]
MIC(90-100) EF-ATCC 29212 ([1]; Table 2): 250 µg/mL (≈ 641 µM)
MIC(90-100) SA-ATCC 29213 ([2]; Table 2): 62.5 µg/mL (≈ 160 µM)

COc1ccc(C(=O)CN2CC(COS(=O)(=O)c3ccc(Cl)c4nonc34)OC2=O)cc1 (centres unmarked) [Compound 254]
MIC [2]: 125 µg/mL (≈ 259 µM)

CCOC(=O)/C=C/N1CC(COS(=O)(=O)c2ccc(Cl)c([N+](=O)[O-])c2)OC1=O (centres unmarked) [Compound 695]
MIC [2]: 62.5 µg/mL (≈ 144 µM)

O=C(OCC1CN(Cc2ccc(Br)cc2)C(=O)O1)Oc1ccc([N+](=O)[O-])cc1 (centres unmarked) [Compound 2020]
MIC [1]: 124 µg/mL (≈ 275 µM)
MIC [2]: 64 µg/mL (≈ 142 µM)

CC(C)N1C[C@@H](CNS(=O)(=O)c2ccc([N+](=O)[O-])cc2[N+](=O)[O-])OC1=O [Compound 870]
MIC [2]: 16 µg/mL (≈ 41.2 µM)

O=C1OC(COSc2ccc([N+](=O)[O-])cc2)CN1Cc1ccc(Br)cc1 (centres unmarked) [Compound 2019]
MIC [1]: 32 µg/mL (≈ 72.8 µM)
MIC [2]: 16 µg/mL (≈ 36.4 µM)

CN(C)C(=O)/C=C/N1C[C@@H](COC(=O)c2csc(-c3ccccc3)n2)OC1=O [Compound 1631]
MIC [1]: 16 µg/mL (≈ 39.9 µM)
MIC [2]: 16 µg/mL (≈ 39.9 µM)

CC(=O)/C=C/N1CC(COSc2ccc([N+](=O)[O-])cc2)OC1=O (centres unmarked) [Compound 2023]
MIC [1]: 32 µg/mL (≈ 94.6 µM)
MIC [2]: 64 µg/mL (≈ 189 µM)

CC(C)(C)C(=O)CN1C[C@@H](COS(=O)(=O)c2ccc(Cl)c3nonc23)OC1=O [Compound 34, (S)-3-(3,3-dimethyl-2-butone)-5-(7-chloro-2,1,3-benzoxadiazole-4-sulfonyloxymethyl)-2-oxazolidinone]
MIC [2]: 250 µg/mL (≈ 579 µM)

CCOC(=O)/C=C/N1CC(COSc2ccc([N+](=O)[O-])cc2)OC1=O (centres unmarked) [Compound 2025]
MIC [1]: 32 µg/mL (≈ 86.9 µM)
MIC [2]: 64 µg/mL (≈ 174 µM)

CC(=O)CN1C[C@@H](COS(=O)(=O)c2ccc(Cl)c([N+](=O)[O-])c2)OC1=O [Compound 1081]
MIC [2]: 256 µg/mL (≈ 652 µM)

O=C1NCC(COS(=O)(=O)c2ccc([N+](=O)[O-])cc2)O1 (centres unmarked) [Compound 1985]
MIC [1]: 124 µg/mL (≈ 410 µM)
MIC [2]: 8 µg/mL (≈ 26.5 µM)

CC(C)(C)C(=O)CCN1C[C@@H](COS(=O)(=O)c2ccc([N+](=O)[O-])cc2)OC1=O [Compound 272]
MIC [2]: 250 µg/mL (≈ 603 µM)

C=CCN1CC(COS(=O)(=O)c2ccc(Cl)c3nonc23)OC1=O (centres unmarked) [Compound 255]
MIC [1]: 250 µg/mL (≈ 669 µM)
MIC [2]: 62.5 µg/mL (≈ 167 µM)

CN(C)C(=O)CN1C[C@@H](COS(=O)(=O)c2ccc(Cl)c3nonc23)OC1=O [Compound 1026]
MIC [2]: 256 µg/mL (≈ 611 µM)

O=C(CN1C[C@@H](COS(=O)(=O)c2ccc(Cl)c3nonc23)OC1=O)C1CC1 [Compound 260]
MIC [2]: 250 µg/mL (≈ 601 µM)

CN1CC(COS(=O)(=O)c2ccc([N+](=O)[O-])cc2)OC1=O (centres unmarked) [Compound 266]
MIC [2]: 15.6 µg/mL (≈ 49.3 µM)

COC(=O)CN1C[C@@H](COS(=O)(=O)c2ccc(Cl)c([N+](=O)[O-])c2)OC1=O [Compound 1058]
MIC [2]: 256 µg/mL (≈ 626 µM)

CN(C)C(=O)/C=C/N1C[C@@H](COC(=O)c2cc(Cl)sc2Cl)OC1=O [Compound 1629]
MIC [1]: 64 µg/mL (≈ 163 µM)
MIC [2]: 256 µg/mL (≈ 651 µM)

O=C1NCC(COS(=O)(=O)c2ccc(Cl)cc2[N+](=O)[O-])O1 (centres unmarked) [Compound 1998]
MIC [1]: 64 µg/mL (≈ 190 µM)
MIC [2]: 16 µg/mL (≈ 47.5 µM)

C=CCN1CC(COS(=O)(=O)c2ccc([N+](=O)[O-])cc2)OC1=O (centres unmarked) [Compound 108]
MIC [2]: 62.5 µg/mL (≈ 183 µM)

CC(=O)OC(C(=O)OC[C@@H]1CN(C)C(=O)O1)c1ccccc1 (some centres unmarked) [Compound 1097]
MIC [2]: 32 µg/mL (≈ 104 µM)

CCOC(=O)CC(C)(C)C(=O)CN1C[C@@H](COS(=O)(=O)c2ccc(Cl)c3nonc23)OC1=O [Compound 291]
MIC [2]: 250 µg/mL (≈ 496 µM)

CC(C)N1C[C@H](COS(=O)(=O)c2ccc([N+](=O)[O-])cc2)OC1=O [Compound 952]
MIC [2]: 32 µg/mL (≈ 92.9 µM)

CC(=O)CN1C[C@@H](COS(=O)(=O)c2ccc([N+](=O)[O-])cc2)OC1=O [Compound 1063]
MIC [2]: 16 µg/mL (≈ 44.7 µM)

O=C1O[C@H](COS(=O)(=O)c2ccc([N+](=O)[O-])cc2)CN1C(=O)c1ccco1 [Compound 334]
MIC [2]: 62.5 µg/mL (≈ 158 µM)

CC(C)N1C[C@@H](CNS(=O)(=O)c2ccc([N+](=O)[O-])cc2)OC1=O [Compound 860]
MIC [2]: 64 µg/mL (≈ 186 µM)

CCC#CCN1CC(COS(=O)(=O)c2ccc(Cl)c3nonc23)OC1=O (centres unmarked) [Compound 276]
MIC [1]: 250 µg/mL (≈ 625 µM)
MIC [2]: 125 µg/mL (≈ 313 µM)

O=C1O[C@@H](COc2cccc3c(O)cccc23)CN1c1ccc([N+](=O)[O-])cc1 [Compound 1960]
MIC [1]: 8 µg/mL (≈ 21 µM)
MIC [2]: 32 µg/mL (≈ 84.1 µM)

CCC#CCN1C[C@H](COS(=O)(=O)c2ccc(Cl)c3nonc23)OC1=O [Compound 924]
MIC [2]: 256 µg/mL (≈ 640 µM)

COC(=O)CN1C[C@@H](COS(=O)(=O)c2ccc([N+](=O)[O-])cc2)OC1=O [Compound 669]
MIC [2]: 62.5 µg/mL (≈ 167 µM)

CCN1C[C@@H](COS(=O)(=O)c2ccc(Cl)c3nonc23)OC1=O [Compound 1196]
MIC [1]: 128 µg/mL (≈ 354 µM)
MIC [2]: 256 µg/mL (≈ 708 µM)

CCOC(=O)/C=C/N1C[C@@H](COS(=O)(=O)c2ccc([N+](=O)[O-])cc2)OC1=O [Compound 1160]
MIC [2]: 128 µg/mL (≈ 320 µM)

CCCCN1CC(COS(=O)(=O)c2cccc3nsnc23)OC1=O (centres unmarked) [Compound 905]
MIC [2]: 256 µg/mL (≈ 689 µM)

C#CCN1CC(COS(=O)(=O)c2ccc([N+](=O)[O-])cc2)OC1=O (centres unmarked) [Compound 236]
MIC [2]: 31.3 µg/mL (≈ 92 µM)

C#CCN1CC(COS(=O)(=O)c2ccc(Cl)c3nonc23)OC1=O (centres unmarked) [Compound 235]
MIC [2]: 62.5 µg/mL (≈ 168 µM)

CCOC(=O)CC(C)(C)C(=O)CN1C[C@H](COS(=O)(=O)c2ccc([N+](=O)[O-])cc2)OC1=O [Compound 921]
MIC [2]: 256 µg/mL (≈ 542 µM)

CCN1C[C@@H](COS(=O)(=O)c2ccc(Cl)c([N+](=O)[O-])c2)OC1=O [Compound 1210]
MIC [2]: 256 µg/mL (≈ 702 µM)

CC(=O)CN1C[C@@H](COS(=O)(=O)c2ccc(Cl)c3nonc23)OC1=O [Compound 1066]
MIC [2]: 256 µg/mL (≈ 657 µM)

O=C1O[C@@H](COS(=O)(=O)c2ccc([N+](=O)[O-])cc2)CN1C(=O)c1ccco1 [Compound 942]
MIC [2]: 32 µg/mL (≈ 80.7 µM)

CC(C)(C)CC(=O)CN1C[C@@H](COS(=O)(=O)c2ccc([N+](=O)[O-])cc2)OC1=O [Compound 533]
MIC [2]: 125 µg/mL (≈ 302 µM)

CC#CCN1CC(COS(=O)(=O)c2ccc([N+](=O)[O-])cc2)OC1=O (centres unmarked) [Compound 110]
MIC [2]: 31.3 µg/mL (≈ 88.3 µM)

O=C(CN1C[C@@H](COS(=O)(=O)c2ccc([N+](=O)[O-])cc2)OC1=O)N1CCOCC1 [Compound 589]
MIC [2]: 125 µg/mL (≈ 291 µM)

O=C1O[C@@H](COS(=O)(=O)c2ccc([N+](=O)[O-])cc2)CN1C(=O)C1CC1 [Compound 929]
MIC [2]: 64 µg/mL (≈ 173 µM)

CCOC(=O)/C=C/N1CC(COS(=O)(=O)C2=CC=C([N+](=O)[O-])CC2)OC1=O (centres unmarked) [Compound 388]
MIC [2]: 125 µg/mL (≈ 311 µM)

O=C1O[C@H](COS(=O)(=O)c2ccc([N+](=O)[O-])cc2)CN1C(=O)C1CC1 [Compound 250]
MIC [2]: 250 µg/mL (≈ 675 µM)
